IC50 data for 23 molecules are collected here from US7858621B2 (Amorepacific Corporation, priority 2006, dated 2010).

T1 sequence (O35433 whole entry): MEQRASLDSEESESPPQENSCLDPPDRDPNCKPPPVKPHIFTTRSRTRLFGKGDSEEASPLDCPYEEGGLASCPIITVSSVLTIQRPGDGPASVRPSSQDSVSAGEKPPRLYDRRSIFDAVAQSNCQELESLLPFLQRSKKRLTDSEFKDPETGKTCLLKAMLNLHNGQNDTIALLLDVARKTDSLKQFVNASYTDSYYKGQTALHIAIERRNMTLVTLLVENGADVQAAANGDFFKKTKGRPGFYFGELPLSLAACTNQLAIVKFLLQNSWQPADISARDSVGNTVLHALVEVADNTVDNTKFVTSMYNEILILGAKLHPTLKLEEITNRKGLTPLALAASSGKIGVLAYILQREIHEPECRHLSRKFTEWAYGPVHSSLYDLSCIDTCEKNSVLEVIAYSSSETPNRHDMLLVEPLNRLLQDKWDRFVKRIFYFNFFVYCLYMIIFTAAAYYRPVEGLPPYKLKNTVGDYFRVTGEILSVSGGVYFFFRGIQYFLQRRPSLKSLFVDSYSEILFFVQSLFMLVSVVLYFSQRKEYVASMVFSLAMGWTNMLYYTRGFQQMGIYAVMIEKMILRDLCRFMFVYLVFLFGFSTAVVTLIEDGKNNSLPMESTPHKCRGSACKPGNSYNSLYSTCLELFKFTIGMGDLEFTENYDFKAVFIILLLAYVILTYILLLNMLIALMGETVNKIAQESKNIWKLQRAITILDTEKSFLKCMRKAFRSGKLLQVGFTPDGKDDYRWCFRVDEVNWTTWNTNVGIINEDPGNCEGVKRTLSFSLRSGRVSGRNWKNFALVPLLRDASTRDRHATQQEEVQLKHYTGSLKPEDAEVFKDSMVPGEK

The test concerns the target T1, vanilloid receptor (Rattus norvegicus, UniProt O35433).
T1 construct: DRG nerve cells from the primary culture of 2 days were equilibrated; endogenous in cells; host or cells: primary culture of dorsal root ganglion neurons from neonatal SD rats
The test can be described thus: 45Ca influx test in cultured neonatal rat DRG neurons, inhibition of capsaicin response. In kind it is cell-based. To be noted: neonatal rat DRG neurons, capsaicin 0.5 μM, 45Ca influx; read-out: Antagonist Calcium Uptake Test (IC50). Here is the method: 1) Separation of Spinal Dorsal Root Ganglia (DRG) in Newborn Rats and Primary Culture Thereof
Neonatal (2-3 day old or younger than 2-3 day old) SD rats were put in ice for 5 minutes to anesthetize and disinfected with 70% ethanol. […] The DRG were incubated sequentially at 37° C. for 30 mins in 200 U/ml collagenase and 2.5 mg/ml trypsin, separately. The ganglia were washed twice with DME/F12 medium supplemented with 10% horse serum, triturated through a fire-polished Pasteur pipette, filtered through Nitex 80 membrane to obtain single cell suspension and the suspension was washed once more. This was subjected to centrifugation, then resuspended in cell culture medium at certain level of cell density. As the cell culture medium, DME/F12 medium supplemented with 10% horse serum was diluted with identical medium conditioned by C6 glioma cells 2 days on a confluent monolayer (1:1), and NGF (Nerve Growth Factor) was added to adjust 200 ng/ml as final concentration. After the cells were grown 2 days in medium where cytosine arabinoside (Ara-C, 100 μM) was added to kill dividing nonneuronal cells, medium was changed to one without Ara-C. The resuspended cells were plated at a density of 1500-2000 neurons/well onto Terasaki plates previously coated with 10 μg/ml poly-D-ornithine.
2) ^45Ca Influx Experiments
DRG nerve cells from the primary culture of 2 days were equilibrated by washing 4 times with HEPES (10 mM, pH 7.4)-buffered Ca^2+, Mg^2+-free HBSS (H-HBSS). The solution in each well was removed from the individual well. Medium containing the test compound plus capsaicin (final concentration 0.5 μM) and ^45Ca (final concentration 10 μCi/ml) in H-HBSS was added to each well and incubated at room temperature for 10 mins. Terasaki plates were washed five times with H-HBSS and dried at room temperature. To each well, 0.3% SDS (10 μl) was added to elute ^45Ca. After the addition of scintillation cocktail of into each well, the amount of ^45Ca influx into neuron was measured by counting radioactivity.
In the case of `C#Cc1cc(CNC(=O)/C=C/c2cc(Cl)c(C(F)(F)F)nc2CCCC)cc(F)c1NS(C)(=O)=O` [Example 76, 3-(2-Butyl-5-chloro-6-trifluoromethyl-pyridin-3-yl)-N-(3-ethynyl-5-fluoro-4-methanesulfonylamino-benzyl)-acrylamide], the IC50 – broadly, the concentration that inhibits the measured activity by half – was 0.2 µM.
In the case of `C[C@@H](NC(=O)/C=C/c1ccc(C(F)(F)F)nc1CCc1ccccc1)c1cc(F)c(NS(C)(=O)=O)c(F)c1` [Example 236, (R)—N-[1-(3,5-Difluoro-4-methanesulfonylamino-phenyl)-ethyl]-3-(2-phenethyl-6-trifluoromethyl-pyridin-3-yl)-acrylamide] it was 0.049 µM.
As for `COCCCc1nc(C(F)(F)F)ccc1/C=C/C(=O)NCc1ccc(NS(C)(=O)=O)c(F)c1` [Example 156, N-(3-Fluoro-4-methanesulfonylamino-benzyl)-3-[2-(3-methoxy-propyl)-6-trifluoromethyl-pyridin-3-yl]-acrylamide], the IC50 stood at 2.2 µM.
In the case of `C#Cc1cc(CNC(=O)/C=C/c2ccc(C(F)(F)F)nc2C#CCOC)cc(F)c1NS(C)(=O)=O` [Example 153, N-(3-Ethynyl-5-fluoro-4-methanesulfonylamino-benzyl)-3-[2-(3-methoxy-prop-1-ynyl)-6-trifluoromethyl-pyridin-3-yl]-acrylamide] it was 1.1 µM; in that of `C#Cc1cc(CNC(=O)/C=C/c2ccc(C(F)(F)F)nc2-c2cccc(OC)c2)cc(F)c1NS(C)(=O)=O` [Example 125, N-(3-Ethynyl-5-fluoro-4-methanesulfonylamino-benzyl)-3-[2-(3-methoxy-phenyl)-6-trifluoromethyl-pyridin-3-yl]-acrylamide], greater than 1 µM; in that of `C#Cc1cc(CNC(=O)/C=C/c2ccc(Cl)nc2)cc(F)c1NS(C)(=O)=O` [Example 14, 3-(6-Chloro-pyridin-3-yl)-N-(3-ethynyl-5-fluoro-4-methanesulfonylamino-benzyl)-acrylamide], greater than 10 µM.
On to `CS(=O)(=O)Nc1ccc(CNC(=O)/C=C/c2ccc(C(F)(F)F)nc2Nc2ccccc2)cc1F` [Example 127, N-(3-Fluoro-4-methanesulfonylamino-benzyl)-3-(2-phenylamino-6-trifluoromethyl-pyridin-3-yl)-acrylamide], for which the IC50 was determined as 0.32 µM.
Regarding `CC(C)Nc1nc(C(F)(F)F)ccc1/C=C/C(=O)NCc1ccc(NS(=O)(=O)C(F)(F)F)cc1` [Example 270, 3-(2-Isopropylamino-6-trifluoromethyl-pyridin-3-yl)-N-(4-trifluoromethanesulfonylamino-benzyl)-acrylamide], the IC50 was greater than 10 µM.
Then `CCCCc1nc(C(F)(F)F)ccc1/C=C/C(=O)NCc1cc(C)c(NS(C)(=O)=O)c(F)c1` [Example 192, 3-(2-Butyl-6-trifluoromethyl-pyridin-3-yl)-N-(3-fluoro-4-methanesulfonylamino-5-methyl-benzyl)-acrylamide], with 0.09 µM; and `C=Cc1cc(CNC(=O)/C=C/c2ccc(C(C)(C)C)nc2)ccc1NS(C)(=O)=O` [Examples 4], with 0.22 µM.
With `CC(C)c1nc(C(F)(F)F)ccc1/C=C/C(=O)N[C@H](C)c1ccc(NS(C)(=O)=O)c(F)c1` [Example 234, (R)—N-[1-(3-Fluoro-4-methanesulfonylamino-phenyl)-ethyl]-3-(2-isopropyl-6-trifluoromethyl-pyridin-3-yl)-acrylamide], the IC50 worked out at 0.041 µM.
Regarding `CC(C)(C)c1ccc(/C=C/C(=O)NCc2cc(F)c(NS(C)(=O)=O)c(F)c2)cn1` [Example 39, 3-(6-tert-Butyl-pyridin-3-yl)-N-(3,5-difluoro-4-methanesulfonylamino-benzyl)-acrylamide], the IC50 came to 1.6 µM.
Then `CS(=O)(=O)Nc1c(F)cc(CNC(=O)/C=C/c2ccc(C(F)(F)F)nc2Oc2ccccc2)cc1C#N` [Example 105, N-(3-Cyano-5-fluoro-4-methanesulfonylamino-benzyl)-3-(2-phenoxy-6-trifluoromethyl-pyridin-3-yl)-acrylamide], with 0.63 µM; and `C#Cc1cc(CNC(=O)/C=C/c2ccc(C(C)(C)C)nc2Br)cc(F)c1NS(C)(=O)=O` [Example 37, 3-(2-Bromo-6-tert-butyl-pyridin-3-yl)-N-(3-ethynyl-5-fluoro-4-methanesulfonylamino-benzyl)-acrylamide], with 0.059 µM.
In the case of `C#Cc1cc(CNC(=O)/C=C/c2ccc(C(F)(F)F)nc2N(C)c2ccccc2)cc(F)c1NS(C)(=O)=O` [Example 166, N-(3-Ethynyl-5-fluoro-4-methanesulfonylamino-benzyl)-3-[2-(methyl-phenylamino)-6-trifluoromethyl-pyridin-3-yl]-acrylamide] it was 0.069 µM; in that of `C[C@@H](NC(=O)/C=C/c1ccc(C(F)(F)F)nc1NCc1ccccc1)c1ccc(NS(C)(=O)=O)c(F)c1` [Example 195, (R)-3-(2-Benzylamino-6-trifluoromethyl-pyridin-3-yl)-N-[1-(3-fluoro-4-methanesulfonylamino-phenyl)-ethyl]-acrylamide], 0.067 µM; in that of `CCC(C)Nc1nc(C(F)(F)F)ccc1/C=C/C(=O)NCc1ccc(NS(C)(=O)=O)c(C)c1` (centres unmarked) [Example 176, 3-(2-sec-Butylamino-6-trifluoromethyl-pyridin-3-yl)-N-(4-methanesulfonylamino-3-methyl-benzyl)-acrylamide], 0.057 µM.
Then `C#Cc1cc(CNC(=O)/C=C/c2ccc(C(F)(F)F)nc2N2CCC[C@H]2C(=O)OCc2ccccc2)cc(F)c1NS(C)(=O)=O` [Example 71, N-(3-Ethynyl-5-fluoro-4-methanesulfonylamino-benzyl)-3-[2-(2-benzyloxycarbonyl-pyrrolidin-1-yl)-6-trifluoromethyl-pyridin-3-yl]-acrylamide], with greater than 10 µM.
Consider `C#Cc1cc(CNC(=O)/C=C/c2ccc(C(F)(F)F)nc2OC2CCCC2)cc(F)c1NS(C)(=O)=O` [Example 92, 3-(2-Cyclopentoxy-6-trifluoromethyl-pyridin-3-yl)-N-(3-ethynyl-5-fluoro-4-methanesulfonylamino-benzyl)-acrylamide], for which the IC50 came out at 0.52 µM.
In the case of `CCCCNc1nc(C(F)(F)F)ccc1/C=C/C(=O)NCc1ccc(NS(C)(=O)=O)c(C)c1` [Example 187, N-(4-Methanesulfonylamino-3-methyl-benzyl)-3-(2-butylamino-6-trifluoromethyl-pyridin-3-yl)-acrylamide] it was 0.075 µM; in that of `C#Cc1cc(CNC(=O)/C=C/c2ccc(C(F)(F)F)nc2NCc2ccccc2)cc(F)c1NS(C)(=O)=O` [Example 196, 3-(2-Benzylamino-6-trifluoromethyl-pyridin-3-yl)-N-(3-ethynyl-5-fluoro-4-methanesulfonylamino-benzyl)-acrylamide], 0.076 µM; in that of `CCNc1nc(C(F)(F)F)ccc1/C=C/C(=O)NCc1cc(F)c(NS(C)(=O)=O)cc1F` [Example 255, N-(2,5-Difluoro-4-methanesulfonylamino-benzyl)-3-(2-ethylamino-6-trifluoromethyl)-pyridin-3-yl-acrylamide], 0.13 µM.
Then `C#Cc1cc(CNC(=O)/C=C/c2ccc(C(F)(F)F)nc2SCC)cc(F)c1NS(C)(=O)=O` [Example 171, 3-(2-Ethylthio-6-trifluoromethyl-pyridin-3-yl)-N-(3-ethynyl-5-fluoro-4-methanesulfonylamino-benzyl)-acrylamide], with 0.18 µM.
